Each block holds one molecule with its values, some of them ahead of it.
Experiments:
Assay type in all cases: cell-based
RhoprTyr1-R [1] = molecular target: T1, RhoprTyr1-R (Rhodnius prolixus, UniProt A0A291L8I9); test: aequorin bioluminescence Ca2+ assay in transfected HEK293/CNG cells, dose-response (agonist)
T1 construct: full ORF (455 amino acids; GenBank MF377527) transiently expressed in HEK293/CNG cells
T1 sequence (A0A291L8I9 1-455): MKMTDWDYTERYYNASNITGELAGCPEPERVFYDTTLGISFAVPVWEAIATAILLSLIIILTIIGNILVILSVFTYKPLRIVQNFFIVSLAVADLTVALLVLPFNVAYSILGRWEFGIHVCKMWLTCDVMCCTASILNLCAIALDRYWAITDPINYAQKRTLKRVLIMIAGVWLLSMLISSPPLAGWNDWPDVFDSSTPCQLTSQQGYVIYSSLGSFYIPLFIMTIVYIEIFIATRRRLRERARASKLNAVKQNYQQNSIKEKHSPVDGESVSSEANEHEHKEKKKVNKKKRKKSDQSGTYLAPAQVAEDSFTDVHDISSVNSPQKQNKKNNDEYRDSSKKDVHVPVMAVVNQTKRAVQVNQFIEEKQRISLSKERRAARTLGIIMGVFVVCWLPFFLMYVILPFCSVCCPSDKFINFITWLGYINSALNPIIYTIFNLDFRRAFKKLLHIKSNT

RhoprOctβ2-R [2] = molecular target: T2, RhoprOctβ2-R (Rhodnius prolixus, UniProt A0A291L8J3); test: aequorin bioluminescence Ca2+ assay in transfected HEK293/CNG cells, dose-response (full agonist)
T2 construct: full ORF (447 amino acids; GenBank MF377526) transiently expressed in HEK293/CNG cells
T2 sequence (A0A291L8J3 1-447): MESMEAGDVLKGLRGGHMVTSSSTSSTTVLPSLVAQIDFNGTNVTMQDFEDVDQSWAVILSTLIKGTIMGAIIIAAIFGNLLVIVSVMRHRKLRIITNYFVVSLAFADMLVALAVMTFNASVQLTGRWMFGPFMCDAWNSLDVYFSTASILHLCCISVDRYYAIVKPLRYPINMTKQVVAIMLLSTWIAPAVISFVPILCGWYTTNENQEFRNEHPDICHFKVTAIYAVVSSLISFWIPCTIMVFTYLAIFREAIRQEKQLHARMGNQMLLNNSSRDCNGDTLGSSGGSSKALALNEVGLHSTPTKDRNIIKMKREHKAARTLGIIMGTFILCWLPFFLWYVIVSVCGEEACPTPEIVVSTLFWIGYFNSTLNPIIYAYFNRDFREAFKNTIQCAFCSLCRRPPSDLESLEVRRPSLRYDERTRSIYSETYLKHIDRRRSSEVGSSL

RhoprOctβ2-R [3] = molecular target: T2, RhoprOctβ2-R; test: aequorin bioluminescence Ca2+ assay in transfected HEK293/CNG cells, dose-response (partial agonist)
RhoprOctβ2-R [4] = molecular target: T2, RhoprOctβ2-R; test: antagonism of octopamine-induced aequorin luminescence in HEK293/CNG cells, single dose […]
RhoprOctβ2-R [5] = molecular target: T2, RhoprOctβ2-R; test: partial antagonism of octopamine-induced aequorin luminescence in HEK293/CNG cells, single dose […]
RhoprTyr1-R [6] = molecular target: T1, RhoprTyr1-R; test: antagonism of tyramine-induced aequorin luminescence in HEK293/CNG cells, single dose […]

EC50 (RhoprTyr1-R [1]): 6.88 µM | EC50 (RhoprOctβ2-R [2]): 0.367 µM
Compound: NCC(O)c1ccc(O)cc1 (stereo not shown) [OA, octopamine]

EC50 (RhoprTyr1-R [1]): 0.0517 µM | EC50 (RhoprOctβ2-R [3]): 3.85 µM
Compound: NCCc1ccc(O)cc1 [TA, tyramine]

Compound: CN(C)Cc1c[nH]c2ccccc12 [gramine]
antagonism of octopamine-induced aequorin luminescence in HEK293/CNG cells, sing (RhoprOctβ2-R [4]): Phentolamine and gramine significantly reduced octopamine-induced receptor activation

Compound: CCN(CC)CCNC(=O)c1cc(Cl)c(N)cc1OC [metoclopramide]
partial antagonism of octopamine-induced aequorin luminescence in HEK293/CNG cel (RhoprOctβ2-R [5]): RhoprOctβ2-R was antagonized by phentolamine > gramine > metoclopramide

Compound: CC(COc1ccccc1)N(CCCl)Cc1ccccc1 (stereo not shown) [phenoxybenzamine]
antagonism of tyramine-induced aequorin luminescence in HEK293/CNG cells, single (RhoprTyr1-R [6]): notably yohimbine and phenoxybenzamine, reduced the tyramine-induced activation of the RhoprTyr1-R
